Data from publication PMC10384408, “Anticancer Tungstenocenes with a Diverse Set of (O,O–), (O,S–) and (O,N–) Chelates—A Detailed Biological Study Using an Improved Evaluation via 3D Spheroid Models” (Pharmaceutics, 2023).

Experiments:
HCT116 cells [1] = test: Annexin V-FITC/PI apoptosis assay, HCT116; format: cell-based, human; conditions: HCT116, 24 h; for ∑apoptotic cells [%]: sum of early and late
[2] = system: SW480 (colon carcinoma) cells; test: MTT cytotoxicity assay, SW480 monolayer; format: cell-based, human; conditions: exposure time 96 h, mean ± SD
Summary of the method: (§1)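 Monolayer cells seeded at 1 × 10^3 (CH1/PA-1), 2 × 10^3 (SW480), 3 × 10^3 (A549) or 7 × 10^3 (IMR-90) per well, preincubated 24 h, then exposed to serially diluted drug for 96 h. Viability by MTT (4 h), absorbance 550 nm (690 nm reference); IC50 interpolated from concentration-effect curves relative to untreated controls, ≥3 independent experiments.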

MCF-7 cells [3] = test: Resazurin assay, MCF-7 2D monolayer; format: cell-based, human; conditions: 96 h
Procedure: (§2) CH1/PA-1 (ovarian teratocarcinoma), SW480 (colon carcinoma) and A549 (non-small cell lung cancer) cells were maintained as described in the reference. IMR-90 human fetal lung fibroblasts (from the European Collection of Authenticated Cell Cultures, Porton Down, Salisbury, UK) were cultured in Stable Cell^TM DMEM/F12 supplemented with 0.01 mg/mL human recombinant insulin (both purchased from Sigma-Aldrich) and 10% fetal bovine serum (FBS, BioWest, Nuaillé, France). Human colon carcinoma cell lines HCT116 and HT29 (both kindly provided by the Institute of Cancer Research, Department of Medicine I, Medical University of Vienna, Austria) were cultured in McCoy’s 5a medium supplemented with 4 mM L-glutamine (both purchased from Sigma-Aldrich) and 10% FBS. MCF-7 human breast adenocarcinoma cells (kindly provided by M. Ogris, Department of Pharmaceutical Sciences, University of Vienna, Austria) were maintained in DMEM (high glucose) supplemented with 4 mM L-glutamine, 0.1 mg/mL human insulin (all purchased from Sigma-Aldrich) and 10% FBS. All cell lines were grown as monolayers in 75 cm^2 culture flasks (CytoOne, Starlab, Hamburg, Germany) at 37 °C in a humidified atmosphere containing 5% CO2.
(§3) For the resazurin assay in monolayer cultures, cells were seeded into 96-well microculture plates (CytoOne, tissue culture treated, Starlab, Hamburg, Germany) in densities of 2 × 10^3 HCT116, 2 × 10^3 HT29 and 4 × 10^3 MCF-7 cells per well (each in 100 µL). For tests in 3D cultures, spheroids were grown as described above. After 24 h (for monolayers) or 4 days (for spheroids) the test compounds in the appropriate medium were added in serial dilution to the plates to obtain a total volume of 200 µL/well. Wells without cells, containing medium and resazurin (Alfa Aesar, Thermo Fisher, Kandel, Germany) solution were used as blanks. After 96 h exposure 20 µL of the resazurin solution (440 µM) were added to each well, followed by a 4 h (2D) or 12 h (3D) incubation period. Resorufin fluorescence was quantified at 530 nm (and a reference wavelength of 620 nm) by using a microplate reader (Synergy HT, BioTek) with Gen5^TM 3.10 software (BioTek).

[4] = system: CH1/PA-1 (ovarian teratocarcinoma) cells; test: MTT cytotoxicity assay, CH1/PA-1 monolayer; format: cell-based, human; conditions: exposure time 96 h, mean ± SD
Summary of the method: as §1

[5] = system: HCT116 multicellular tumor spheroids; test: Resazurin assay, HCT116 3D spheroids; format: cell-based, human; conditions: 96 h; for IC50: spheroids
Procedure: as §2
(§4) For growing multicellular tumor spheroids, 400 HCT116, 400 HT29 or 800 MCF-7 cells per well were plated into round-bottom ultra-low attachment 96-well plates (Corning, Glendale, AZ, USA) in the media described above and incubated at 37 °C for 96 h. Spheroids were treated with 10 µM of the two most cytotoxic compounds 3 and 4 for another 96 h. The diameters of the spheroids were measured with Cell^F software under a CKX41 Olympus microscope before treatment and in constant daily intervals over the 96 h treatment period. For statistical analysis the t-test with Welsh’s correction was implemented in GraphPad Prism software (Version 6.01).
as §3

[6] = Solubility in PBS (1% DMSO); format: physicochemical
Procedure: Stock solutions in DMSO of compounds 1–10 were utilized to determine the solubility in PBS by adding 1 vol% of the stock solution to a suitable amount of PBS. […] UV/Vis data were recorded on a Perkin Elmer Lambda 650 UV/Vis Spectrophotometer with a Peltier element for temperature control.

HCT116 cells [7] = test: Resazurin assay, HCT116 2D monolayer; format: cell-based, human; conditions: 96 h
Procedure: as §2, §3

[8] = system: MCF-7 multicellular tumor spheroids; test: Resazurin assay, MCF-7 3D spheroids; format: cell-based, human; conditions: 96 h; for IC50: spheroids
Procedure: as §2, §4, §3

MCF-7 cells [9] = test: Annexin V-FITC/PI apoptosis assay, MCF-7; conditions: MCF-7, 24 h; for ∑apoptotic cells [%]: sum of early and late

F[P-](F)(F)(F)(F)F.[O-]c1c(-c2ccc(Cl)cc2)oc2ccccc2c1=S.[W+4].c1cc[cH-]c1.c1cc[cH-]c1 [Compound 4, Bis(η^5-cyclopentadienyl)[2-(4-chlorophenyl)-3-(oxo-κO)-4(H)-chromen-4-thionato-κS]tungsten(IV) hexafluorophosphate]
early apoptotic cells [%] AV+ / PI- (HCT116 cells [1]; 2 µM): 2.3 ± 0.0%
late apoptotic cells [%] AV+ / PI+ (HCT116 cells [1]; 2 µM): 8.0 ± 6.2%
necrotic cells [%] AV- / PI+ (HCT116 cells [1]; 2 µM): 2.4 ± 1.5%
viable cells [%] AV- / PI- (HCT116 cells [1]; 2 µM): 87.3 ± 7.8%
∑apoptotic cells [%] (HCT116 cells [1]; 2 µM): 10.3%
early apoptotic cells [%] AV+ / PI- (HCT116 cells [1]; 20 µM): 1.9 ± 0.4%
late apoptotic cells [%] AV+ / PI+ (HCT116 cells [1]; 20 µM): 31.1 ± 4.7%
necrotic cells [%] AV- / PI+ (HCT116 cells [1]; 20 µM): 11.5 ± 1.2%
viable cells [%] AV- / PI- (HCT116 cells [1]; 20 µM): 55.5 ± 4.8%
IC50 [2]: 2.4 ± 0.5 µM
IC50 (MCF-7 cells [3]): 2.7 ± 0.7 µM
IC50 [4]: 1.6 ± 0.5 µM
ratio 3D/2D of IC50 values, HCT116 [5]: 2.5
IC50 [5]: 15 ± 4 µM
Solubility in PBS (1% DMSO) [6]: 10 µg/mL
IC50 (HCT116 cells [7]): 6 ± 0.9 µM
ratio 3D/2D of IC50 values, MCF-7 [8]: 7.0
IC50 [8]: 19 ± 2 µM
early apoptotic cells [%] AV+ / PI- (MCF-7 cells [9]; 2 µM): 1.0 ± 0.8%
late apoptotic cells [%] AV+ / PI+ (MCF-7 cells [9]; 2 µM): 3.4 ± 1.2%
necrotic cells [%] AV- / PI+ (MCF-7 cells [9]; 2 µM): 1.8 ± 0.0%
viable cells [%] AV- / PI- (MCF-7 cells [9]; 2 µM): 93.9 ± 2.1%
∑apoptotic cells [%] (MCF-7 cells [9]; 2 µM): 4.4%
early apoptotic cells [%] AV+ / PI- (MCF-7 cells [9]; 10 µM): 1.2 ± 0.5%
late apoptotic cells [%] AV+ / PI+ (MCF-7 cells [9]; 10 µM): 12.0 ± 2.0%
necrotic cells [%] AV- / PI+ (MCF-7 cells [9]; 10 µM): 11.7 ± 4.7%
viable cells [%] AV- / PI- (MCF-7 cells [9]; 10 µM): 75.2 ± 2.2%
∑apoptotic cells [%] (MCF-7 cells [9]; 10 µM): 13.2%
early apoptotic cells [%] AV+ / PI- (MCF-7 cells [9]; 20 µM): 1.0 ± 0.4%
late apoptotic cells [%] AV+ / PI+ (MCF-7 cells [9]; 20 µM): 15.1 ± 3.3%
necrotic cells [%] AV- / PI+ (MCF-7 cells [9]; 20 µM): 33.8 ± 14.5%
viable cells [%] AV- / PI- (MCF-7 cells [9]; 20 µM): 50.2 ± 10.8%
early apoptotic cells [%] AV+ / PI- (MCF-7 cells [9]; 50 µM): 0.0 ± 0.0%
late apoptotic cells [%] AV+ / PI+ (MCF-7 cells [9]; 50 µM): 43.4 ± 3.7%
necrotic cells [%] AV- / PI+ (MCF-7 cells [9]; 50 µM): 51.5 ± 10.3%
viable cells [%] AV- / PI- (MCF-7 cells [9]; 50 µM): 5.0 ± 6.6%
∑apoptotic cells [%] (MCF-7 cells [9]; 50 µM): 43.4%

F[P-](F)(F)(F)(F)F.O=C([O-])c1ccccn1.[W+4].c1cc[cH-]c1.c1cc[cH-]c1 [Compound 5, Bis(η^5-cyclopentadienyl)[2-(carboxylato-κO)-pyridine-κN]tungsten(IV) hexafluorophosphate]
early apoptotic cells [%] AV+ / PI- (HCT116 cells [1]; 200 µM): 2.0 ± 1.1%
late apoptotic cells [%] AV+ / PI+ (HCT116 cells [1]; 200 µM): 2.9 ± 0.7%
necrotic cells [%] AV- / PI+ (HCT116 cells [1]; 200 µM): 2.4 ± 1.2%
viable cells [%] AV- / PI- (HCT116 cells [1]; 200 µM): 92.7 ± 1.3%
∑apoptotic cells [%] (HCT116 cells [1]; 200 µM): 4.9%
IC50 [2]: 147 ± 21 µM
IC50 (MCF-7 cells [3]): > 200 µM
IC50 [4]: > 200 µM
IC50 [5]: > 200 µM
Solubility in PBS (1% DMSO) [6]: 180 µg/mL
IC50 (HCT116 cells [7]): > 200 µM
IC50 [8]: > 200 µM
early apoptotic cells [%] AV+ / PI- (MCF-7 cells [9]; 200 µM): 1.3 ± 0.7%
late apoptotic cells [%] AV+ / PI+ (MCF-7 cells [9]; 200 µM): 7.9 ± 5.3%
necrotic cells [%] AV- / PI+ (MCF-7 cells [9]; 200 µM): 4.2 ±2.2%
∑apoptotic cells [%] (MCF-7 cells [9]; 200 µM): 9.2%

Cc1c([O-])c(=O)ccn1C.F[P-](F)(F)(F)(F)F.[W+4].c1cc[cH-]c1.c1cc[cH-]c1 [Compound 6, Bis(η^5-cyclopentadienyl)[1,2-dimethyl-3-(oxo-κO)-4-(1H)-pyridonato-κO]tungsten(IV) hexafluorophosphate]
early apoptotic cells [%] AV+ / PI- (HCT116 cells [1]; 200 µM): 5.0 ± 1.3%
late apoptotic cells [%] AV+ / PI+ (HCT116 cells [1]; 200 µM): 17.2 ± 122%
necrotic cells [%] AV- / PI+ (HCT116 cells [1]; 200 µM): 3.1 ± 0.7%
viable cells [%] AV- / PI- (HCT116 cells [1]; 200 µM): 74.7 ± 14.1%
∑apoptotic cells [%] (HCT116 cells [1]; 200 µM): 22.2%
IC50 [2]: 154 ± 29 µM
IC50 (MCF-7 cells [3]): 172 ± 45 µM
IC50 [4]: > 200 µM
IC50 [5]: > 200 µM
Solubility in PBS (1% DMSO) [6]: 1200 µg/mL
IC50 (HCT116 cells [7]): > 200 µM
IC50 [8]: > 200 µM
early apoptotic cells [%] AV+ / PI- (MCF-7 cells [9]; 200 µM): 1.4 ± 0.8%
late apoptotic cells [%] AV+ / PI+ (MCF-7 cells [9]; 200 µM): 3.6 ± 1.5%
necrotic cells [%] AV- / PI+ (MCF-7 cells [9]; 200 µM): 2.1 ± 0.5%
viable cells [%] AV- / PI- (MCF-7 cells [9]; 200 µM): 92.8 ± 2.2%
∑apoptotic cells [%] (MCF-7 cells [9]; 200 µM): 5.1%

Cc1cc(=O)c([O-])co1.F[P-](F)(F)(F)(F)F.[W+4].c1cc[cH-]c1.c1cc[cH-]c1 [Compound 7, Bis(η^5-cyclopentadienyl)[2-methyl-5-(oxo-κO)-4-(1H)-pyran-4-ato-κO] tungsten(IV) hexafluorophosphate]
early apoptotic cells [%] AV+ / PI- (HCT116 cells [1]; 200 µM): 4.5 ± 1.8%
late apoptotic cells [%] AV+ / PI+ (HCT116 cells [1]; 200 µM): 13.7 ± 8.2%
necrotic cells [%] AV- / PI+ (HCT116 cells [1]; 200 µM): 3.6 ± 0.9%
viable cells [%] AV- / PI- (HCT116 cells [1]; 200 µM): 78.2 ± 9.3%
∑apoptotic cells [%] (HCT116 cells [1]; 200 µM): 18.2%
IC50 [2]: > 200 µM
IC50 (MCF-7 cells [3]): > 200 µM
IC50 [4]: 152 ± 16 µM
IC50 [5]: > 200 µM
Solubility in PBS (1% DMSO) [6]: 350 µg/mL
IC50 (HCT116 cells [7]): > 200 µM
IC50 [8]: > 200 µM
early apoptotic cells [%] AV+ / PI- (MCF-7 cells [9]; 200 µM): 1.3 ± 0.4%
late apoptotic cells [%] AV+ / PI+ (MCF-7 cells [9]; 200 µM): 8.1 ± 5.5%
necrotic cells [%] AV- / PI+ (MCF-7 cells [9]; 200 µM): 3.2 ± 1.2%
viable cells [%] AV- / PI- (MCF-7 cells [9]; 200 µM): 87.4 ± 6.6%
∑apoptotic cells [%] (MCF-7 cells [9]; 200 µM): 9.4%

Cc1cc(=S)c([O-])co1.F[P-](F)(F)(F)(F)F.[W+4].c1cc[cH-]c1.c1cc[cH-]c1 [Compound 8, Bis(η^5-cyclopentadienyl)[2-methyl-5-(oxo-κO)-pyran-4-(1H)-thionato-κS] tungsten(IV) hexafluorophosphate]
early apoptotic cells [%] AV+ / PI- (HCT116 cells [1]; 200 µM): 5.5 ± 2.0%
late apoptotic cells [%] AV+ / PI+ (HCT116 cells [1]; 200 µM): 12.4 ± 2.4%
necrotic cells [%] AV- / PI+ (HCT116 cells [1]; 200 µM): 2.8 ± 1.3%
viable cells [%] AV- / PI- (HCT116 cells [1]; 200 µM): 79.4 ± 3.5%
∑apoptotic cells [%] (HCT116 cells [1]; 200 µM): 17.9%
IC50 [2]: 129 ± 14 µM
IC50 (MCF-7 cells [3]): 163 ± 32 µM
IC50 [4]: 93 ± 15 µM
IC50 [5]: 178 ± 14 µM
Solubility in PBS (1% DMSO) [6]: 410 µg/mL
IC50 (HCT116 cells [7]): > 200 µM
IC50 [8]: > 200 µM
early apoptotic cells [%] AV+ / PI- (MCF-7 cells [9]; 200 µM): 1.2 ± 0.3%
late apoptotic cells [%] AV+ / PI+ (MCF-7 cells [9]; 200 µM): 8.7 ± 6.9%
necrotic cells [%] AV- / PI+ (MCF-7 cells [9]; 200 µM): 2.7 ± 1.4%
viable cells [%] AV- / PI- (MCF-7 cells [9]; 200 µM): 87.3 ± 8.3%
∑apoptotic cells [%] (MCF-7 cells [9]; 200 µM): 9.9%
